# Patent US20210023089A1, “Compositions Useful for Treating Herpes Simplex Keratitis, and Methods Using Same” (priority 2013, published 2021)
# Tests used:
# HSV-1 = test: qRT-PCR of viral transcripts in HSV-1 infected hTCEpi cells; assay type: cell-based, HSV-1 (KOS strain); settings: MOI 0.1, 10 μM, 16 hpi
# Method: The following strains of HSV-1 were used: KOS, ICPO-null, HFEM, and tsB7. Subconfluent monolayers of cells were grown in six-well plates. Drug treatments were administered 45 minutes prior to infection and continued for the entire duration of each experiment. Unless indicated otherwise, KU-55933 (Batch No. 5, 99.7% purity; Tocris Bioscience, Bristol, UK) was used at 10 μM final concentration, phosphonoacetic acid (PAA) at 400 μg/mL (Sigma-Aldrich, St. Louis, Mo.), and acyclovir at 50 μg/mL (Sigma-Aldrich). KU-55933 was dissolved in dimethyl sulfoxide (DMSO), and the final concentration of DMSO in both KU-55933 and mock treatment in the in vitro and the ex vivo experiments was 0.1%.
# Viral genome replication and transcription were measured by quantitative PCR (qPCR). Total DNA and RNA from infected cells were isolated using the DNeasy Blood & Tissue Kit and the RNeasy Mini Kit, respectively (QIAGEN, Hilden, Germany). RNA was converted to cDNA using qScript (Quanta BioSciences, Gaithersburg, Md.). Real-time qPCR was performed with SYBR Green (Bio-Rad, Hercules, Calif.). […] Transcription of the three gene families was measured with primers for RL2 (ICPO), UL30 (DNA polymerase catalytic subunit), and UL44 (gC), with reference primers for the 18S ribosomal RNA (rRNA).
# ATM = biological target: T1, ATM (Homo sapiens, UniProt Q13315); test: pATM Western blot in bleomycin-damaged ex vivo human corneas (bioavailability); assay type: cell-based; settings: bleomycin 200 μg/mL 1 hour, KU-55933 10 μM 1 hour pretreatment
# T1 construct: The epithelial layers were collected for protein lysates and analyzed by Western blot with antibodies against pATM (Ser1981) and total ATM; tissue Lions Eye Bank of Delaware Valley; host or cells: epithelial layer of explanted human corneas
# T1 sequence (Q13315 whole entry): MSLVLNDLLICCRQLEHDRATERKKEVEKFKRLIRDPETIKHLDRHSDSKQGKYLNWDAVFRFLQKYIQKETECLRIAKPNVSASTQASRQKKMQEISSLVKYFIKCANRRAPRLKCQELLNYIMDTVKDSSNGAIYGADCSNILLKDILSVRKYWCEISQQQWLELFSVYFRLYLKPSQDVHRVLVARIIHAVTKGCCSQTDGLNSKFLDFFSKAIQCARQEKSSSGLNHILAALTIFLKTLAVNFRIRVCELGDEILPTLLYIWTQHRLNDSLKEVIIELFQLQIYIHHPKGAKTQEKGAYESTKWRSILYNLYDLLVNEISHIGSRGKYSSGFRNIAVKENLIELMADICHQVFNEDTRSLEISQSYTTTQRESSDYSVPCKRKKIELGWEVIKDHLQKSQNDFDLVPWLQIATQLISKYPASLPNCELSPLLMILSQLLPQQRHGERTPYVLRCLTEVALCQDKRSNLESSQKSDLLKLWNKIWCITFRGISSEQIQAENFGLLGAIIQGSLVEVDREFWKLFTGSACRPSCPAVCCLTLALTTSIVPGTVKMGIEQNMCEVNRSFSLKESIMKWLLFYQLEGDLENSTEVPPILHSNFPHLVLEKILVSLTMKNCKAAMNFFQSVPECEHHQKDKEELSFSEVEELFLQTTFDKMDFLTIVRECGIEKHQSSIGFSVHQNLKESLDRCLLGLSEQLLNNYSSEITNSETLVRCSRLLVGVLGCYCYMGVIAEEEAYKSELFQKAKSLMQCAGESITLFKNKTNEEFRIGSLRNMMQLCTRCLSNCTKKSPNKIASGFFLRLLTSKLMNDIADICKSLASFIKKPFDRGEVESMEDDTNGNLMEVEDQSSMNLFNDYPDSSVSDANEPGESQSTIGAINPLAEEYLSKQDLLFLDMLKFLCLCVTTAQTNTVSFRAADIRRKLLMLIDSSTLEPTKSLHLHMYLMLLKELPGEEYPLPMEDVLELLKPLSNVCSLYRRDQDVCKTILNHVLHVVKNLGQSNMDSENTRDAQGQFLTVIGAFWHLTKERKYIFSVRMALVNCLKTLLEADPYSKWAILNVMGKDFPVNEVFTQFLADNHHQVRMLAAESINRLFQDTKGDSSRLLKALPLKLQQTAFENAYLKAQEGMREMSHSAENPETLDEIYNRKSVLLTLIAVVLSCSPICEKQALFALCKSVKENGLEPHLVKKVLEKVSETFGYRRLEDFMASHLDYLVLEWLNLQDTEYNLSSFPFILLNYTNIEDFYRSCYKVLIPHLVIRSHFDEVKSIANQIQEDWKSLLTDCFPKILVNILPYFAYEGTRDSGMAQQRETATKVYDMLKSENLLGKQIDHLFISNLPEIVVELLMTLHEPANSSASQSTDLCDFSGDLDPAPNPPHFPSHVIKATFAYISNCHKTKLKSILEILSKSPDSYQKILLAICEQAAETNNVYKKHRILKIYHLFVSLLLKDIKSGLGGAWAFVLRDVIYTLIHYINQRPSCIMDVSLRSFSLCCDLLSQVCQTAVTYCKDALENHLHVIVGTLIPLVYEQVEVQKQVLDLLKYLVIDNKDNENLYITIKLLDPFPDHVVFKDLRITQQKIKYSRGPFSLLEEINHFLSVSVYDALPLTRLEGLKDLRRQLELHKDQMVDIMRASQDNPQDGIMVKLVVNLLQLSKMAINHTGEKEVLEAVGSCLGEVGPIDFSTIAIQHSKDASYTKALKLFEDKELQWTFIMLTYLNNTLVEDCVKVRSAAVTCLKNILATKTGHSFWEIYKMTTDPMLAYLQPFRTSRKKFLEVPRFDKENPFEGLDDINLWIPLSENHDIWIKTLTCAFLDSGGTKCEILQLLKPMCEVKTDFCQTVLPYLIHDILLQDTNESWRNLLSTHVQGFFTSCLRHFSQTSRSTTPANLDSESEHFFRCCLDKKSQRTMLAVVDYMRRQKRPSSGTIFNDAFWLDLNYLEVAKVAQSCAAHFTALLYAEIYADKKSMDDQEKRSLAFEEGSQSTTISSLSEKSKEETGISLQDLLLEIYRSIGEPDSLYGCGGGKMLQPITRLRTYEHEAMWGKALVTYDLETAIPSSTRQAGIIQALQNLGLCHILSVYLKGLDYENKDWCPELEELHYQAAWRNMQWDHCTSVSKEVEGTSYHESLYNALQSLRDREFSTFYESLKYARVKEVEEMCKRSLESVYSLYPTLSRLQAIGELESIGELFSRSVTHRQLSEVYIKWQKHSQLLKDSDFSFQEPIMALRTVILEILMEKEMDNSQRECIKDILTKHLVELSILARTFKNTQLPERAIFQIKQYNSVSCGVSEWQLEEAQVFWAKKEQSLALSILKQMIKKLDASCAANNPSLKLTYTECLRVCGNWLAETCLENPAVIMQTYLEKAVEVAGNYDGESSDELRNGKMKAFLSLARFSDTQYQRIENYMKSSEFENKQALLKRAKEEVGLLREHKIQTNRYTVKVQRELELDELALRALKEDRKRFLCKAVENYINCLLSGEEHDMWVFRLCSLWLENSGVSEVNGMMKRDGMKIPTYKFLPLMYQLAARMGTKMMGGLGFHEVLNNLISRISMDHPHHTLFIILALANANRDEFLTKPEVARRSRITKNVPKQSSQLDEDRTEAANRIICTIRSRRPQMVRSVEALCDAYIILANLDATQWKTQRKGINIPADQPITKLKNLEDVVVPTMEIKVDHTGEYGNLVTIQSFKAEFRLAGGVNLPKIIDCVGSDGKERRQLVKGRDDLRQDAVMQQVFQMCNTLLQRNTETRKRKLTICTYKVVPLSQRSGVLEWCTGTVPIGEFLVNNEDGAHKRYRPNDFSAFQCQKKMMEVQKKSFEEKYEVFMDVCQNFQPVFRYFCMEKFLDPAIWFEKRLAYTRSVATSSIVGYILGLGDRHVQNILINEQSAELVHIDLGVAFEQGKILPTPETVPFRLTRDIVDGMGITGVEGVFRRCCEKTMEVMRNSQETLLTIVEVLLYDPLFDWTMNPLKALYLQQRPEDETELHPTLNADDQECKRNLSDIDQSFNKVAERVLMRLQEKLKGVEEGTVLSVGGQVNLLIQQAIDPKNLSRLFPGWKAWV
# Method: Human corneas were obtained from the Lions Eye Bank of Delaware Valley. Rabbit corneas were excised from intact fresh eyeballs of young (8-12 weeks) albino rabbits (Pel-Freez Biologicals, Rogers, Ark.). Protocol (Alekseev et al., 2012, J Vis Exp 69:e3631) for ex vivo corneal culture, infection, and treatment was followed closely. Briefly, corneoscleral buttons were excised and rinsed in PBS containing 200 U/mL penicillin and 200 μg/mL streptomycin. The endothelial concavity was filled with culture medium containing 1% low melting temperature agarose. The corneas were cultured epithelial side up in MEM medium supplemented with nonessential amino acids (1×), 2 mM […], 200 U/mL penicillin, and 200 μg/mL streptomycin. The next day, they were infected with 1×10^4 plaque forming units (PFU)/cornea of strain KOS HSV-1 for 1 hour, rinsed, and overlaid with fresh medium. Drug treatments were administered at the same concentrations as for cultured cells. For KU-55933 bioavailability assessment, corneas were treated with bleomycin (200 μg/mL) for 1 hour. […] Treatment toxicity was assessed by briefly staining the cornea with fluorescein (1% wt/vol in PBS) and imaging the epithelial defects with 464-nm wavelength blue light (LDP LLC, Carlstadt, N.J.).
# Standard protocol was followed for Western blot analysis. […] Protein concentrations were measured by bicinchoninic acid (BCA) assay. […]
# McKrae strain HSV-1 = test: Mouse model of ocular HSV-1 keratitis, disease scoring; assay type: in vivo, C57BL/6J mice; settings: 200 μM topical
# Method: Four-week-old female C57BL/6J mice were anesthetized with isoflurane, and their left eyes were scarified in a 4×4 crosshatch pattern with a 28-gauge needle. […] strain HSV-1 was applied in 1 μL inoculum volume at 8×10^5 PFU/eye and the eyelid gently massaged. The infection was allowed to develop for 24 hours, at which point treatments were initiated. KU-55933 was delivered to the corneas dissolved in PBS to a concentration of 200 μM. Control treatments constituted an equivalent amount of DMSO (0.2% vol/vol) in PBS drops. Treatments were administered every 4 hours for 1 full day and then every 8 hours for the remainder of the experiment. Ocular disease severity was assessed at every 24-hour period postinfection. Two disease parameters were scored based on a number scale (Jose et al., 2013, Invest Ophthalmol Vis Sci 54:1070-1079). Briefly, stromal keratitis was scored as 1+, cloudiness, some iris detail visible; 2+, iris detail obscured; 3+, cornea totally opaque; and 4+, corneal perforation. Blepharitis was scored as 1+, puffy eyelids; 2+, puffy eyelids with some crusting; 3+, eye swollen shut with severe crusting; and 4+, eye completely swollen shut and crusted over.
smiles,measurement,setting,value
"O=c1cc(-c2cccc3c2Sc2ccccc2S3)oc(N2CCOCC2)c1 [KU-55933, 2-(morpholin-4-yl)-6-(thianthren-1-yl)-pyran-4-one]","levels of viral transcripts (ICP0, DNA polymerase, glycoprotein C)",HSV-1,reduced
same,pATM level in corneal epithelium,ATM,completely eliminated
same,difference in blepharitis score versus control group,McKrae strain HSV-1,not statistically significant
same,stromal disease severity (stromal keratitis score),"McKrae strain HSV-1; started 24 hpi, every 4 hours for 1 day then every 8 hours",notable and statistically significant reduction
same,"stromal keratitis state by day 5 postinfection, on average",McKrae strain HSV-1; all control mice developed corneal perforation,only corneal opacity
